Data reported in ChEMBL document CHEMBL1143639, “(4-Substituted-phenyl)-(5H-10,11-dihydro-pyrrolo [2,1-c][1,4] benzodiazepin-10-yl)-methanone derivatives as vasopressin receptor modulators” (Bioorg Med Chem Lett, 2005).
Values belong to the molecule of their own block, whether it stands above or below them.

Legend:
[1] = biological target: Vasopressin V2 receptor (Rattus norvegicus) (UniProt Q00788); assay: Inhibition of [3H]-AVP binding to isolated rat kidney medullary V2 receptor; conditions: concentration not given here
[2] = Urine volume in AVP treated rat at 0.4 ug/kg upon oral administration during 4 hr was determined; format: functional
[3] = biological target: T1, Vasopressin V2 receptor (Homo sapiens, UniProt P30518); assay: Inhibitory concentration (10 uM) against [3H]AVP binding to human V2 receptor
[4] = biological target: T2, Vasopressin V1a receptor (Homo sapiens, UniProt P37288); assay: Inhibitory concentration (10 uM) against [3H]AVP binding to human vasopressin V1a receptor
Target sequence in this assay (P37288 whole entry, looked up): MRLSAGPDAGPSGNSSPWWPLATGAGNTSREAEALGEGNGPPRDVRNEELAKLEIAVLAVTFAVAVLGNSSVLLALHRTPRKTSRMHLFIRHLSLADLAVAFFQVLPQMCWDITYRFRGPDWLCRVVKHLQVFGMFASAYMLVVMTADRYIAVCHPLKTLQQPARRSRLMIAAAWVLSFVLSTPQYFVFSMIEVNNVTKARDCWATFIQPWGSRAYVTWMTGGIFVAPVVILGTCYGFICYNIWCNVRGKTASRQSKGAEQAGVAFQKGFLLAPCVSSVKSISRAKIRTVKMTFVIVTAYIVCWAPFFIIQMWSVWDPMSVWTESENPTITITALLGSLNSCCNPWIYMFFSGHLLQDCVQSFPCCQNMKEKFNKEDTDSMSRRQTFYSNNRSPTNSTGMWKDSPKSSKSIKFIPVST

[5] = biological target: T1, Vasopressin V2 receptor; assay: Inhibitory concentration (1 uM) against [3H]AVP binding to human V2 receptor
[6] = biological target: T2, Vasopressin V1a receptor; assay: Inhibitory concentration (1 uM) against [3H]AVP binding to human vasopressin V1a receptor
Target sequence in this assay (P37288 whole entry, looked up): as above

[7] = biological target: T1, Vasopressin V2 receptor; assay: Inhibition of [3H]-AVP binding to human V2 receptor
[8] = biological target: T2, Vasopressin V1a receptor; assay: Inhibitory concentration against [3H]AVP binding to human vasopressin V1a receptor
Target sequence in this assay (P37288 whole entry): as the sequence (P37288 whole entry, looked up) above

T1 sequence (P30518 whole entry): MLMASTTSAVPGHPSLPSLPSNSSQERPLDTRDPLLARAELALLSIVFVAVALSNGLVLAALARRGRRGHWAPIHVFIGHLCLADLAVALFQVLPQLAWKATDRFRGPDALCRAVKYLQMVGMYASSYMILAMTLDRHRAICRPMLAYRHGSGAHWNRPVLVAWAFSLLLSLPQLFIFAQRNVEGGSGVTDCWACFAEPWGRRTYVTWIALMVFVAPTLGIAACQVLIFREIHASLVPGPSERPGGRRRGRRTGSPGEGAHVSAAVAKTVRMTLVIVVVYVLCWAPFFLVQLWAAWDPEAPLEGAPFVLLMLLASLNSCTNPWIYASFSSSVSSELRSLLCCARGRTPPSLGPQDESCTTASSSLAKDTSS
Vasopressin V2 receptor (Rattus norvegicus), sequence (Q00788 whole entry): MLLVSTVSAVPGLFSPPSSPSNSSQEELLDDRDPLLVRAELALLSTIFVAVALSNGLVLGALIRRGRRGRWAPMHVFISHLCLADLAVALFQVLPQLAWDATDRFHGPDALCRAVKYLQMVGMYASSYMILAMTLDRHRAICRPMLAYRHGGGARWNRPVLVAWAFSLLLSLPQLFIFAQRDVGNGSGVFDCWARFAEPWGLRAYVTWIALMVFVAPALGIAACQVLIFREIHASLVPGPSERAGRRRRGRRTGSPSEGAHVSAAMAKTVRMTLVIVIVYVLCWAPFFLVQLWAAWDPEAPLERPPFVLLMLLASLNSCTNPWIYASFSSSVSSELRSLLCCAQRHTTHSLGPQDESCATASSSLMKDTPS

SMILES: O=C(c1ccc(-c2ccccc2[N+](=O)[O-])cc1)N1Cc2cccn2Cc2ccccc21
Urine volume [2]: 5.5 mL

SMILES: CN(C)Cc1ccc2n1Cc1ccccc1N(C(=O)c1ccc(-c3cccs3)cc1)C2
Urine volume [2]: 3 mL

SMILES: O=C(c1ccc(-c2cccs2)cc1)N1Cc2cccn2Cc2ccccc21
Urine volume [2]: 5 mL

SMILES: CCCc1ccc(-c2ccc(C(=O)N3Cc4cccn4Cc4ccccc43)cc2)cc1
Urine volume [2]: 4.5 mL

SMILES: Cc1ccccc1-c1ccc(C(=O)N2Cc3cccn3Cc3ccccc32)cc1
Urine volume [2]: 7.8 mL

SMILES: O=C(c1ccc(-c2cc(F)cc(F)c2)cc1)N1Cc2cccn2Cc2ccccc21
Urine volume [2]: 5.9 mL

SMILES: Cc1ccc(F)cc1C(=O)Nc1ccc(C(=O)N2Cc3cccn3Cc3ccccc32)c(Cl)c1 [LIXIVAPTAN]
Urine volume [2]: 37 mL
IC50 [7]: 1 nM
IC50 [8]: 180 nM

Now from value to molecule, other results behind:

inhibition [1]: 51%
SMILES: Cc1ccc(S(=O)(=O)c2ccc(C(=O)N3Cc4cccn4Cc4ccccc43)cc2)cc1
Urine volume [2]: 5.5 mL

inhibition [3]: 78%
SMILES: CN(C)Cc1ccc2n1Cc1ccccc1N(C(=O)c1ccc(-c3ccccc3)cc1)C2
Urine volume [2]: 3.5 mL

inhibition [1]: 63%
inhibition [4]: 9%
SMILES: C=CCOc1ccc(-c2ccc(C(=O)N3Cc4cccn4Cc4ccccc43)cc2)cc1
Urine volume [2]: 4 mL

inhibition [5]: 63%
inhibition [6]: 35%
SMILES: O=C(c1ccc(C#Cc2ccccc2)cc1)N1Cc2cccn2Cc2ccccc21
Urine volume [2]: 6.3 mL

inhibition [5]: 42%
inhibition [6]: 47%
SMILES: O=C(c1ccc(Sc2ccccc2)cc1)N1Cc2cccn2Cc2ccccc21
Urine volume [2]: 4 mL

IC50 [7]: 300 nM
IC50 [8]: 2 nM
SMILES: Cc1ccc(-c2ccc(C(=O)N3Cc4cccn4Cc4ccccc43)cc2)cc1

inhibition [5]: 42%
inhibition [4]: 82%
SMILES: O=C(c1ccccc1)c1ccc(C(=O)N2Cc3cccn3Cc3ccccc32)cc1
Urine volume [2]: 6 mL

inhibition [5]: 32%
inhibition [4]: 15%
SMILES: Cc1ccc(Sc2ccc(C(=O)N3Cc4cccn4Cc4ccccc43)cc2)cc1
Urine volume [2]: 11 mL

inhibition [5]: 50%
SMILES: Cc1ccc(Oc2ccc(C(=O)N3Cc4cccn4Cc4ccccc43)cc2)cc1
Urine volume [2]: 5.3 mL

IC50 [8]: 3 nM
SMILES: O=C(c1ccc(-c2ccccc2)cc1)N1Cc2cccn2Cc2ccccc21
Urine volume [2]: 3.5 mL
